The text below walks through data of patent US8088412B2, “Intralymphatic chemotherapy drug carriers” (priority 2008, dated 2012).

One series deals with MDA-MB-468LN. Nature of the series: Cell proliferation over 72 hrs, resazurin blue. Type of series: cell-based, human. The protocol: Preceding proliferation studies, cells were trypsinized and seeded into 96-well plates (5,000 cells/well). […] After 4 hrs, well fluorescence was measured (λex 560 nm, λem 590 nm) using a fluorophotometer (SpectraMax Gemini; Molecular Devices, Sunnyvale, Calif.). IC50 was determined as the midpoint between saline (positive) and cell-free (negative) controls for each plate.

A further series concerns MCF7. The series can be described thus: In vitro cell toxicity (DMEM, resazurin blue, 72 hrs). Type of series: cell-based, human. How it is done:
(§1) Cell lines were seeded into 96-well plates (5000 cells/well) in DMEM medium supplemented with 5% FBS and 1% penicillin/streptomycin.
Background: Alamar Blue is a resazurin reagent that responds to reducing activity.

The subject of another series is MDA-MB-231. The series is described as above. In kind it is cell-based, human. As to conditions: for IC50: cisplatin basis. How it is done: as §1
A short description of series [1]: Tissue distribution after subcutaneous cisplatin or cisplatin-HA into right mammary fat pad. In kind it is in vivo, Sprague-Dawley rats. The protocol: Animals were allowed to recover with access to food and water. […] Organs and tissues were washed with 0.9% saline and frozen (−80° C.) until analysis. Plasma was separated by centrifugation from whole blood and frozen (−80° C.).
In vitro release samples (n=3) and plasma samples (n=5) were diluted 200-fold and 10-fold, respectively, with 0.1% nitric acid for analysis. […] Lymph nodes were processed similarly using 10 mg of tissue. After digestion, samples were homogenized (Tissue Tearor, BioSpec Products Inc., Bartlesville, Okla.). All samples were centrifuged (17 000×g, 20 min), and the supernate used for analysis.
Analysis was performed on a Varian SpectrAA GTA-110 with graphite furnace and partition tubes. Samples (21 μL) were injected using the autosampler, followed by 19 μL of 0.1% nitric acid. […] The furnace program was as follows: ramp 25 to 80° C., hold 2 s, ramp to 120° C., hold 10 s, ramp to 1000° C., hold 5 s, ramp to 2700° C., hold 2 s, cool to 25° C. over 20 s. The graphite partition tube was cleaned every 40 samples by baking at 2800° C. for 7 s. Argon was used as the injection and carrier gas.

A further series concerns MDA-1986 cells. The series can be described thus: In vivo efficacy of HA-cisplatin, orthotopic HNSCC model. Further details: species or system Nu/Nu female athymic nude mice. The conditions noted are these: intravenous, weekly dose of 3.3 mg/kg for 3 weeks; 3 mice. An excerpt:
The in vivo efficacy of HA-cisplatin was studied. All treatment began once animal HNSCC tumors reached 100 mm3 volume. Treatment commenced for 3 weeks. All animals were given 5×10^5 MDA-1986 cells in the buccal mucosa of the left cheek (which is a novel orthotopic HNSCC model I developed this year) and tumors develop in 2-3 weeks.

In a further series the test system is MDA-MB-468LN tumor cells. Nature of the series: Efficacy of HA-doxorubicin vs intravenous doxorubicin, breast tumor xenograft. Type of series: in vivo, nude mice. The conditions noted are these: 6 weeks post-implantation; in saline via the tail vein, doses at 3 and 5 weeks. How it is done:
Nude nu/nu mice were implanted with 1×10^6 cells (MDA-MB-468LN human breast cancer cells) into the mammary fatpad, after approximately 4 weeks a 100-200 mm^3 tumor had developed in the axillary lymph node package. Animals were randomly divided into four treatment groups of five animals each: intravenous saline, s.q. HA, intravenous cisplatin, or s.q. HA-cisplatin. At this point, doses were administered to the animals. In the HA-cisplatin and the HA groups, HA-cisplatin (3.3 mg/kg based on Pt-content) or HA (3.3 mg/kg) was dissolved in 100 mcL saline was injected subcutaneously peritumorally. […] In all study groups, a second dose was administered after 1 week. Tumor volumes were measured weekly using calipers and the formula: Volume=0.52×(width^2*length). Animals were euthanized when the tumor volume exceeded […] or the body score index fell below 2.
To evaluate the efficacy of HA-doxorubicin conjugates injected subcutaneously in the […] compared with intravenous doxorubicin, the following experiment was performed. MDA-MB-468LN tumor cells into nude mice as described in [128] and divided into four groups of five animals each. After 3 weeks, HA-DOX was injected peritumorally at 3.3 mg/kg (DOX basis), DOX was injected in saline via the tail vein, HA was injected peritumorally, and saline was injected via the tail vein. […]

pIC50: −log10 of the molar value. Like-named read-outs stand apart in the source and are kept apart here. Marks after values point to notes of the source that are not given here.

What is called IC50 is the concentration that inhibits the measured activity by half. Usually pIC50 stands for the IC50 on a negative log10 scale, so that one unit is a factor of ten. As for `N.N.[Cl][Pt][Cl]` [Cisplatin, cis-diamminedichloroplatinum, reference compound], the IC50 in the series on MDA-MB-468LN (HA carriers on a Pt-basis equivalent to cisplatin) was 5 µg/mL; with MCF7 (MCF-7, cisplatin basis) it was 7 µg/mL; in the series on MDA-MB-231, 4 µg/mL; in the series with MDA-MB-231 (listed as cisplatin), 7 µg/mL. Also, the pIC50 in the series with MDA-MB-468LN (Pt-basis, read-out: IC50) is 4.77; in the series on MCF7 (MCF-7, read-out: IC50), 4.64; with MDA-MB-231 (read-out: IC50), 4.89. For the same compound, the “AUC (0-96 hrs)” value in series [1] (Bladder, subcutaneous into right mammary fatpad of female rats) came to 208.5 µg·h/g; in series [1] (Brain, subcutaneous into right mammary fatpad), 442.5 µg·h/g; in series [1] (Heart, subcutaneous into right mammary fatpad) it was 459.0 µg·h/g; in series [1] (Kidneys, subcutaneous into right mammary fatpad) it was 650.9 µg·h/g; in series [1] (Left lymph node (LLN), subcutaneous into right mammary fatpad), 349.5 µg·h/g; in series [1] (Liver, subcutaneous into right mammary fatpad), 415.6 µg·h/g. For the same compound, the “AUC (0-96 hrs)” value was 409.8 µg·h/g in series [1] (Lungs, subcutaneous into right mammary fatpad); 371.5 µg·h/g in series [1] (Muscle, subcutaneous into right mammary fatpad); 174.1 µg·h/g in series [1] (Plasma, subcutaneous into right mammary fatpad); 446.0 ^† μg · hr/g in series [1] (Right lymph node (RLN), subcutaneous into right mammary fatpad, p < 0.05); 349.1 µg·h/g in series [1] (Spleen, subcutaneous into right mammary fatpad). Further, the “serum Cmax” value in series [1] (intravenous (as worded in legend of FIG. 10B)) is “over 4 micrograms/mL”. Besides, the tumor growth delay entry in the series with MDA-1986 cells is “about 3 weeks”.

As for `COc1cccc2c1C(=O)c1c(O)c3c(c(O)c1C2=O)C[C@@](O)(C(=O)CO)C[C@@H]3O[C@H]1C[C@H](N)[C@H](O)[C@H](C)O1` [DOX, doxorubicin], the tumor volume entry in the series with MDA-MB-468LN tumor cells was “greater than 300 mm^3”.
